Data reported in patent publication US8410144B2, “Substituted indolo-pyridinone compounds” (ArQule, Inc., priority 2009, dated 2013).

How the values were obtained:
[1] = test system: KATO III; experiment: MTS assay, KATO III cells; assay type: cell-based; settings: 72 hours; for inhibition at 10 µM: Homo sapiens, read-out: KATO III, MTS cell kill % inhibition; for KATO III, MTS cell kill % inhibition: 10 μM
Experimental: (§1) Cells were maintained at 37° C., 5% CO2 in DMEM media supplemented with 1% fetal bovine serum, penicillin/streptomycin and fungizone (Invitrogen). Cells were seeded into 96-well tissue culture plates at 3000 per well and cultured at 37° C. for 18 hours. Test compounds were dissolved and diluted to 300× in DMSO then diluted 1:40 in DMEM. Cells were incubated with test compounds for 72 hours followed by incubation with tetrazolium compound (3-(4,5-dimethylthiazol-2-yl)-5-(3-carboxymethoxyphenyl)-2-(4-sulfophenyl)-2H-tetrazolium, inner salt; MTS) and the electron coupling reagent, phenazine methosulfate (PMS) for 4 hours. […] The ability of compounds to inhibit cell growth in this assay is correlated with the reduction of dehydrogenase enzyme activity found in metabolically active cells. The measurement of the absorbance of the formazan was assessed using an ENVISION™ (Perkin Elmer) microplate reader at 492 nm. The calculated IC50 value is the concentration of the test compound that causes a 50% decrease in the absorbance.

[2] = biological target: IGF-1R (Homo sapiens, UniProt P08069); experiment: IGFR1 activity assay (ELISA); assay type: biochemical; settings: for inhibition at 30 µM: read-out: IGF-1R, PCT INH (30 μM), ELISA
Experimental: The disclosed compounds were assayed for their ability to inhibit insulin-like growth factor receptor-1 (IGFR1). Nunc Maxisorb plates were coated with streptavidin by overnight incubation with 100 μL per well of 1 μg/ml Streptavidin in DPBS. Prior to the start of the experiment, the plates were washed with TBST (3×200 μL) and blocked for at least 1 hour by adding 150 μL of 5% BSA/TBST. The plates were washed with TBST (3×200 μL/well) and left to dry immediately before the capture step.
The disclosed test articles and controls (Staurosporine) were prepared using the following assay buffer at 3× desired final concentration (50 mM Tris-HCl, 0.02 mg/ml BSA, 10 mM MgCl2, 0.1 mM Na3VO4, 1 mM EGTA, 12.5 μM ATP, 0.01% NP-40, 1 mM DTT in 10% glycerol/water). 20 μL of the test compounds (or control), 20 μL IGF1R (0.33 ng/μL final concentration), and 20 μL of Pyk-2 (0.05 ng/μL final concentration) were rapidly added to the reaction plate. The plate was incubated at room temperature for one hour.
50 μL was transferred from the reaction plate to the streptavidin coated plate. The capture plate was incubated at room temperature for 30 minutes, then washed with TBST three times. 100 μL/well of Cell Signaling anti-phospho tyrosine was added to the capture plate at a dilution of 1:3000 in 2% BSA/TBST. The plate was incubated for one hour at room temperature then washed 6× with TBST. 100 μL/well of alkaline phosphatase tagged goat anti mouse antibody was added to the capture plate at a dilution of 1:4000 in 2% BSA/TBST. The plate was incubated for one hour at room temperature then washed with TBST six times.
The fluorescent readout is initiated by the addition of 100 μL/well of Attophos reagent (6 mg/10 mL). The reading is done on the Perkin Elmer Envision system.

[3] = test system: DLD-1; experiment: MTS assay, DLD-1 cells; assay type: cell-based; settings: 72 hours; for inhibition at 10 µM: Homo sapiens, read-out: DLD-1, MTS cell kill % inhibition; for DLD-1, MTS cell kill % inhibition: 10 μM
Experimental: as §1

[4] = test system: NCI-H1299; experiment: MTS assay, NCI-H1299 cells; assay type: cell-based; settings: 72 hours; for inhibition at 10 µM: Homo sapiens, read-out: NCI-H1299, MTS cell kill % inhibition; for NCI-H1299, MTS cell kill % inhibition: 10 μM
Experimental: as §1

[5] = test system: MDA-MB-231; experiment: MTS assay, MDA-MB-231 cells; assay type: cell-based; settings: 72 hours; for inhibition at 10 µM: Homo sapiens, read-out: MDA-MB-231, MTS cell kill % inhibition; for MDA-MB-231, MTS cell kill % inhibition: 10 μM
Experimental: as §1

Sequence of IGF-1R (P08069 31-1367): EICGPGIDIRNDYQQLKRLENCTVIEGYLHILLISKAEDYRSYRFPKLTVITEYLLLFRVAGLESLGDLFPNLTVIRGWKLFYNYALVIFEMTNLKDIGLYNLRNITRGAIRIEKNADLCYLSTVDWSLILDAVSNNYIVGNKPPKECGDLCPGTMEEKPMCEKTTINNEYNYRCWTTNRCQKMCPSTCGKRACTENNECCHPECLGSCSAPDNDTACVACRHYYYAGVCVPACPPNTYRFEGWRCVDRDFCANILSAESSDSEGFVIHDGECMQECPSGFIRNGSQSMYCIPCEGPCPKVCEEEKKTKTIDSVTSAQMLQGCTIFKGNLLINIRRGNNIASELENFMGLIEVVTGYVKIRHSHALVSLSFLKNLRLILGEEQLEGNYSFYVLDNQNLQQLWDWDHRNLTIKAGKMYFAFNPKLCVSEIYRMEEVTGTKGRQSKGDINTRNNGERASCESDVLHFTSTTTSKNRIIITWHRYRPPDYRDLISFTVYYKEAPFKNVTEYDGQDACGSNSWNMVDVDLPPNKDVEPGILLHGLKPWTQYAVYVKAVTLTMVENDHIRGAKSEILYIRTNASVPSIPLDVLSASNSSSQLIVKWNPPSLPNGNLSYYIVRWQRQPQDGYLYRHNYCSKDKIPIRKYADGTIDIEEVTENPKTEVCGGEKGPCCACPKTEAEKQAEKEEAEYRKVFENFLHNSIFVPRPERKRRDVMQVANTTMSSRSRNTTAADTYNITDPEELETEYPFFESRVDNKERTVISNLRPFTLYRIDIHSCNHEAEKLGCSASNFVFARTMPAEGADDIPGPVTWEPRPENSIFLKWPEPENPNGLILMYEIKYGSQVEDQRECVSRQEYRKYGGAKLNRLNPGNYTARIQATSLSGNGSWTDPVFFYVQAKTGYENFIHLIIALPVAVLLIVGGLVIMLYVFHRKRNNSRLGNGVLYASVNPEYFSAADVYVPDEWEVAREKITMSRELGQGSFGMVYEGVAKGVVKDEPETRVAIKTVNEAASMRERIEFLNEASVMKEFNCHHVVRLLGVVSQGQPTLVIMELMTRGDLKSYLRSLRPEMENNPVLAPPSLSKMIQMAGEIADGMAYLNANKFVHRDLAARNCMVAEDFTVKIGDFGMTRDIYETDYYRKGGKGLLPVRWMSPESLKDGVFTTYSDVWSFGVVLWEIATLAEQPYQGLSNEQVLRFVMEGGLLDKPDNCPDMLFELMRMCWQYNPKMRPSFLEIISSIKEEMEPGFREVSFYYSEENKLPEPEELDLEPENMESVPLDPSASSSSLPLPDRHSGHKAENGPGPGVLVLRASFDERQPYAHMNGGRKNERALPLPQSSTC

Compound | inhibition at 30 µM [2] [%] | inhibition at 10 µM [1] [%] | inhibition at 10 µM [3] [%] | inhibition at 10 µM [4] [%] | inhibition at 10 µM [5] [%] | KATO III, MTS cell kill % inhibition [1] | IGF-1R, PCT INH (30 μM), ELISA [2] | DLD-1, MTS cell kill % inhibition [3] | NCI-H1299, MTS cell kill % inhibition [4] | MDA-MB-231, MTS cell kill % inhibition [5]
3-[3-biphenyl-4-yl-5-({[3- (dimethylamino)propyl](methyl) amino}methyl)-1H-indol-2- yl]pyridin-2(1H)-one [Compound 53] | – | – | – | – | – | A (A = 80-100% inhibition) | C (C = <50% inhibition) | A (A = 80-100% inhibition) | A (A = 80-100% inhibition) | A (A = 80-100% inhibition)
CN(CCc1ccccc1)C(=O)c1ccc2[nH]c(-c3ccc[nH]c3=O)c(-c3ccccc3)c2c1 [Compound 23, N-methyl-2-(2-oxo-1,2-dihydropyridin-3-yl)-3-phenyl-N-(2-phenylethyl)-1H-indole-5-carboxamide] | 80 to 100 | 80 to 100 | 80 to 100 | 80 to 100 | 80 to 100 | – | – | – | – | –
O=C(Nc1ccc(F)cc1Cl)c1ccc2[nH]c(-c3ccc[nH]c3=O)c(-c3ccccc3)c2c1 [Compound 18, N-(2-chloro-4-fluorophenyl)-2-(2-oxo-1,2-dihydropyridin-3-yl)-3-phenyl-1H-indole-5-carboxamide] | < 50 | 50 to 79 | 50 to 79 | 80 to 100 | < 50 | – | – | – | – | –
O=C(NCCOc1ccccc1)c1ccc2[nH]c(-c3ccc[nH]c3=O)c(-c3ccccc3)c2c1 [Compound 31, 2-(2-oxo-1,2-dihydropyridin-3-yl)-N-(2-phenoxyethyl)-3-phenyl-1H-indole-5-carboxamide] | 80 to 100 | 80 to 100 | 50 to 79 | 80 to 100 | < 50 | – | – | – | – | –
CN1CCN(C(=O)c2ccc3[nH]c(-c4ccc[nH]c4=O)c(-c4ccc(-c5ccccc5)cc4)c3c2)CC1 [Compound 52, 3-{3-biphenyl-4-yl-5-[(4-methylpiperazin-1-yl)carbonyl]-1H-indol-2-yl}pyridin-2(1H)-one] | 80 to 100 | 80 to 100 | 80 to 100 | 80 to 100 | 80 to 100 | – | – | – | – | –
COc1ccc(CNC(=O)c2ccc3[nH]c(-c4ccc[nH]c4=O)c(-c4ccccc4)c3c2)cc1OC [Compound 32, N-(3,4-dimethoxybenzyl)-2-(2-oxo-1,2-dihydropyridin-3-yl)-3-phenyl-1H-indole-5-carboxamide] | 80 to 100 | 80 to 100 | 50 to 79 | 80 to 100 | < 50 | – | – | – | – | –
O=C(NCCCN1CCOCC1)c1ccc2[nH]c(-c3ccc[nH]c3=O)c(-c3ccc(F)c(F)c3)c2c1 [Compound 61, 3-(3,4-difluorophenyl)-N-(3-morpholin-4-ylpropyl)-2-(2-oxo-1,2-dihydropyridin-3-yl)-1H-indole-5-carboxamide] | 80 to 100 | 80 to 100 | 80 to 100 | 80 to 100 | 80 to 100 | – | – | – | – | –
3-biphenyl-4-yl-N-(2- chlorophenyl)-2-(2-oxo-1,2- dihydropyridin-3-yl)-1H- indole-5-carboxamide [Compound 35] | – | – | – | – | – | C (C = <50% inhibition) | C (C = <50% inhibition) | C (C = <50% inhibition) | C (C = <50% inhibition) | C (C = <50% inhibition)
COc1cccc(-c2c(-c3ccc[nH]c3=O)[nH]c3ccc(C(=O)NCCCN4CCOCC4)cc23)c1 [Compound 63, 3-(3-methoxyphenyl)-N-(3-morpholin-4-ylpropyl)-2-(2-oxo-1,2-dihydropyridin-3-yl)-1H-indole-5-carboxamide] | 80 to 100 | 80 to 100 | 50 to 79 | 80 to 100 | 50 to 79 | – | – | – | – | –
CN(C)CCCN(C)C(=O)c1ccc2[nH]c(-c3ccc[nH]c3=O)c(-c3ccc(-c4ccccc4)cc3)c2c1 [Compound 46, 3-biphenyl-4-yl-N-[3-(dimethylamino)propyl]-N-methyl-2-(2-oxo-1,2-dihydropyridin-3-yl)-1H-indole-5-carboxamide] | 80 to 100 | 80 to 100 | 80 to 100 | 80 to 100 | 80 to 100 | – | – | – | – | –

Now from value to compound, other results behind:

inhibition at 30 µM [2] [%] | Compound | inhibition at 10 µM [1] [%] | inhibition at 10 µM [3] [%] | inhibition at 10 µM [4] [%] | inhibition at 10 µM [5] [%] | KATO III, MTS cell kill % inhibition [1] | IGF-1R, PCT INH (30 μM), ELISA [2] | DLD-1, MTS cell kill % inhibition [3] | NCI-H1299, MTS cell kill % inhibition [4] | MDA-MB-231, MTS cell kill % inhibition [5]
80 to 100 | COc1ccc(C(C)C)cc1-c1c(-c2ccc[nH]c2=O)[nH]c2ccc(C(=O)NCCCN3CCOCC3)cc12 [Compound 64, 3-(5-isopropyl-2-methoxyphenyl)-N-(3-morpholin-4-ylpropyl)-2-(2-oxo-1,2-dihydropyridin-3-yl)-1H-indole-5-carboxamide] | < 50 | < 50 | < 50 | < 50 | – | – | – | – | –
80 to 100 | O=C(NCCCN1CCOCC1)c1ccc2[nH]c(-c3ccc[nH]c3=O)c(-c3csc4ccccc34)c2c1 [Compound 74, 3-(1-benzothien3-yl)-N-(3-morpholin-4-ylpropyl)-2-(2-oxo-1,2-dihydropyridin-3-yl)-1H-indole-5-carboxamide] | 80 to 100 | 50 to 79 | 50 to 79 | 50 to 79 | – | – | – | – | –
80 to 100 | O=C(NCCCN1CCOCC1)c1ccc2[nH]c(-c3ccc[nH]c3=O)c(-c3ccc(Cl)cc3)c2c1 [Compound 69, 3-(4-chlorophenyl)-N-(3-morpholin-4-ylpropyl)-2-(2-oxo-1,2-dihydropyridin-3-yl)-1H-indole-5-carboxamide] | < 50 | < 50 | < 50 | 50 to 79 | – | – | – | – | –
80 to 100 | O=C(NCCCN1CCOCC1)c1ccc2[nH]c(-c3ccc[nH]c3=O)c(-c3cccc(F)c3)c2c1 [Compound 82, 3-(3-fluorophenyl)-N-(3-morpholin-4-ylpropyl)-2-(2-oxo-1,2-dihydropyridin-3-yl)-1H-indole-5-carboxamide] | 80 to 100 | 50 to 79 | 80 to 100 | < 50 | – | – | – | – | –
80 to 100 | O=C(NCCCN1CCOCC1)c1ccc2[nH]c(-c3ccc[nH]c3=O)c(-c3ccc(F)cc3)c2c1 [Compound 68, 3-(4-fluorophenyl)-N-(3-morpholin-4-ylpropyl)-2-(2-oxo-1,2-dihydropyridin-3-yl)-1H-indole-5-carboxamide] | < 50 | < 50 | 50 to 79 | < 50 | – | – | – | – | –
80 to 100 | Cc1ccc(-c2c(-c3ccc[nH]c3=O)[nH]c3ccc(C(=O)NCCCN4CCOCC4)cc23)cc1F [Compound 67, 3-(3-fluoro-4-methylphenyl)-N-(3-morpholin-4-ylpropyl)-2-(2-oxo-1,2-dihydropyridin-3-yl)-1H-indole-5-carboxamide] | 80 to 100 | 50 to 79 | 80 to 100 | 50 to 79 | – | – | – | – | –
< 50 | O=C(NCCCN1CCOCC1)c1ccc2[nH]c(-c3ccc[nH]c3=O)c(-c3ccc(F)c(Cl)c3)c2c1 [Compound 76, 3-(3-chloro-4-fluorophenyl)-N-(3-morpholin-4-ylpropyl)-2-(2-oxo-1,2-dihydropyridin-3-yl)-1H-indole-5-carboxamide] | 80 to 100 | 80 to 100 | 80 to 100 | 80 to 100 | – | – | – | – | –
